The experiment concerns the target T1, CCR1 (Homo sapiens, UniProt P32246).
T1 sequence (P32246 1-355): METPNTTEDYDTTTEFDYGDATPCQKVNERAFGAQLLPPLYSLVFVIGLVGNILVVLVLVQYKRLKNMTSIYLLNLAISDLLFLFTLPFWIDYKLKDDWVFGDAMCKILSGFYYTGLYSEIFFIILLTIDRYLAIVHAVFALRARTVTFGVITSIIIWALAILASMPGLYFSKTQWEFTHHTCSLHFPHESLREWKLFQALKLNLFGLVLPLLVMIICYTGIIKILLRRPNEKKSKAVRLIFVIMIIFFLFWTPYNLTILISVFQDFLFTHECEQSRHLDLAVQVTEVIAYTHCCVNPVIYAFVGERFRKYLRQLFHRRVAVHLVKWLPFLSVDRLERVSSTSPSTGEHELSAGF
In words: Method B: calcium flux in CCR1 transfected cells (Calcium 4 dye, […] FDSS6000), block of the CCR1/MIP-1α interaction. It counts as cell-based. The conditions noted are these: Method B: Calcium 4 dye, MIP-1alpha at EC80. As for the experimental part: Compounds are assessed for the ability to block the interaction of CCR1 and MIP-1α in a functional cellular assay measuring calcium flux in CCR1 transfected cells.
Method B: Non-adherent cells purchased from Chemicon Corporation (HTS005C), stably expressing recombinant CCR1 and G-alpha-16 are grown in RPMI 1640 medium (Mediatech 10-080-CM) supplemented with 10% FBS, 0.4 mg/mL Geneticin and penicillin/streptomycin. On the day of the assay, the cells are loaded with Calcium 4 dye (Molecular Devices R7448) with Probenecid (Invitrogen P346400) at 8E5 cells/mL for 1 hour at room temperature. After 1 hour, they are seeded in a 384-well tissue culture-treated plate at a density of 20,000 cells/well. Appropriately diluted test compound is added to the well to achieve a top concentration of 3,000 nM (diluted 4-fold with 10 doses total). The final concentration of DMSO is 1%. The buffer is HBSS (Invitrogen 14025) with 20 mM HEPES at pH 7.4. The cells incubate 30 minutes at 37 C and then 30 minutes at room temperature. The plates are transferred to the […] FDSS6000 where MIP-1alpha in 1% BSA is added at the EC80 final concentration. All plates must be read within 4 hours of the start of dye-loading. Wells+/−MIP-1alpha containing diluted DMSO instead of compound serve as the controls. Data are analyzed using Activity Base software.
On the technique in general: Calcium flux is commonly read through the fluorescence of an indicator in the cells.

As a reminder, the IC50 is the point on the concentration scale where inhibition reaches its midpoint.

In the case of `CS(=O)(=O)c1csc(CNC(=O)c2cncc3c2cnn3-c2ccc(F)cc2)c1` [1-(4-Fluorophenyl)-1H-pyrazolo[3,4-c]pyridine-4-carboxylic acid (4-methanesulfonyl-thiophen-2-ylmethyl)-amide], the IC50 came to 5 nM.
With `CCS(=O)(=O)c1cccc([C@H](C)NC(=O)c2cncc3c2cnn3-c2ccc(F)cc2)n1` [1-(4-Fluorophenyl)-1H-pyrazolo[3,4-c]pyridine-4-carboxylic acid [(S)-1-(6-ethanesulfonyl-pyridin-2-yl)-ethyl]-amide] the figure was 14 nM.
Under `CCC(NC(=O)c1cncc2c1cnn2-c1ccc(F)cc1)c1ccc(S(C)(=O)=O)[n+]([O-])c1` (centres unmarked) [1-(4-Fluorophenyl)-1H-pyrazolo[3,4-c]pyridine-4-carboxylic acid [1-(6-methanesulfonyl-1-oxy-pyridin-3-yl)-propyl]-amide] stands 9 nM; under `CC(C)(O)CNc1cc(CNC(=O)c2cncc3c2cnn3-c2ccc(F)cc2)cc(S(C)(=O)=O)n1` [1-(4-Fluorophenyl)-1H-pyrazolo[3,4-c]pyridine-4-carboxylic acid [2-(2-hydroxy-2-methyl-propylamino)-6-methanesulfonyl-pyridin-4-ylmethyl]-amide], 0.7 nM.
Turning to `CC[C@H](NC(=O)c1cncc2c1cnn2-c1ccc(F)cc1)c1coc(S(C)(=O)=O)n1` [1-(4-Fluorophenyl)-1H-pyrazolo[3,4-c]pyridine-4-carboxylic acid [(S)-1-(2-methanesulfonyl-oxazol-4-yl)-propyl]-amide], the IC50 is 4 nM.
Under `CCOC(=O)Cn1ccc([C@H](CC)NC(=O)c2cncc3c2cnn3-c2ccc(F)cc2)n1` [[3-((S)-1-{[1-(4-Fluorophenyl)-1H-pyrazolo[3,4-c]pyridine-4-carbonyl]-amino}-propyl)-pyrazol-1-yl]-acetic acid ethyl ester] stands 11 nM; under `COC(=O)CCS(=O)(=O)c1cc([C@H](C)NC(=O)c2cncc3c2cnn3-c2ccc(F)cc2)ccn1` [3-[4-((S)-1-{[1-(4-Fluorophenyl)-1H-pyrazolo[3,4-c]pyridine-4-carbonyl]-amino}-ethyl)-pyridine-2-sulfonyl]-propionic acid methyl ester], 37 nM.
Under `CCC(NC(=O)c1cncc2c1cnn2-c1ccc(F)cc1)C1CCN(C(N)=O)CC1` (centres unmarked) [1-(4-Fluorophenyl)-1H-pyrazolo[3,4-c]pyridine-4-carboxylic acid [1-(1-carbamoyl-piperidin-4-yl)-propyl]-amide] stands 16 nM; under `CC[C@H](NC(=O)c1cncc2c1cnn2-c1ccc(F)cc1)c1ccc(S(=O)(=O)NC2CC2)nc1` [1-(4-Fluorophenyl)-1H-pyrazolo[3,4-c]pyridine-4-carboxylic acid [(S)-1-(6-cyclopropylsulfamoyl-pyridin-3-yl)-propyl]-amide], 0.2 nM.
Under `C=CC[C@H](NC(=O)c1cncc2c1cnn2-c1ccc(F)cc1)c1ccnc(S(C)(=O)=O)c1` [1-(4-Fluorophenyl)-1H-pyrazolo[3,4-c]pyridine-4-carboxylic acid [(S)-1-(2-methanesulfonyl-pyridin-4-yl)-but-3-enyl]-amide] stands 0.3 nM; under `CC[C@H](NC(=O)c1cncc2c1cnn2-c1ccc(F)cc1)c1ccnc(C(C)(C)O)c1` [1-(4-Fluorophenyl)-1H-pyrazolo[3,4-c]pyridine-4-carboxylic acid {(S)-1-[2-(1-hydroxy-1-methyl-ethyl)-pyridin-4-yl]-propyl}-amide], 0.5 nM.
For the molecule `C[C@H](NC(=O)c1cncc2c1cnn2-c1ccc(F)cc1)c1cccc(Cl)c1` [1-(4-Fluorophenyl)-1H-pyrazolo[3,4-c]pyridine-4-carboxylic acid [(S)-1-(3-chlorophenyl)-ethyl]-amide], the IC50 was determined as 5 nM.
Under `CC[C@H](NC(=O)c1cncc2c1cnn2-c1ccc(F)cc1)c1ccnc(N2CCN(C)CC2)c1` [1-(4-Fluorophenyl)-1H-pyrazolo[3,4-c]pyridine-4-carboxylic acid {(S)-1-[2-(4-methyl-piperazin-1-yl)-pyridin-4-yl]-propyl}-amide] stands 8 nM.
Under `CC[C@H](NC(=O)c1cncc2c1cnn2-c1ccc(F)cc1)c1nc(C(=O)NC)cs1` [1-(4-Fluorophenyl)-1H-pyrazolo[3,4-c]pyridine-4-carboxylic acid [(S)-1-(4-methylcarbamoyl-thiazol-2-yl)-propyl]-amide] stands 3 nM.
In the case of `CC[C@H](NC(=O)c1cncc2c1cnn2-c1ccc(F)cc1)c1ccc(S(C)(=O)=O)c(OC)c1` [1-(4-Fluorophenyl)-1H-pyrazolo[3,4-c]pyridine-4-carboxylic acid [(S)-1-(4-methanesulfonyl-3-methoxy-phenyl)-propyl]-amide], the IC50 was 0.2 nM.
With `CCC(CC)(NC(=O)c1cncc2c1cnn2-c1ccc(F)cc1)c1ccnc(S(C)(=O)=O)c1` [1-(4-Fluorophenyl)-1H-pyrazolo[3,4-c]pyridine-4-carboxylic acid [1-ethyl-1-(2-methanesulfonyl-pyridin-4-yl)-propyl]-amide] the figure was 16 nM; with `CC[C@H](NC(=O)c1cncc2c1cnn2-c1ccc(F)cc1)c1cncc(S(=O)(=O)CCC(=O)OC)c1` [3-[5-((S)-1-{[1-(4-Fluorophenyl)-1H-pyrazolo[3,4-c]pyridine-4-carbonyl]-amino}-propyl)-pyridine-3-sulfonyl]-propionic acid methyl ester], 6.3 nM; with `CC[C@H](NC(=O)c1cncc2c1cnn2-c1ccc(F)cc1)c1csc(S(C)(=O)=O)n1` [1-(4-Fluorophenyl)-1H-pyrazolo[3,4-c]pyridine-4-carboxylic acid [(S)-1-(2-methanesulfonyl-thiazol-4-yl)-propyl]-amide], 0.4 nM.
Under `CC[C@H](NC(=O)c1cncc2c1cnn2-c1ccc(F)cc1)c1cc(Cl)nc(S(C)(=O)=O)c1` [1-(4-Fluorophenyl)-1H-pyrazolo[3,4-c]pyridine-4-carboxylic acid [(S)-1-(2-chloro-6-methanesulfonyl-pyridin-4-yl)-propyl]-amide] stands 0.3 nM.
In the case of `CS(=O)(=O)c1cc([C@H](CO)NC(=O)c2cncc3c2cnn3-c2ccc(F)cc2)ccn1` [1-(4-Fluorophenyl)-1H-pyrazolo[3,4-c]pyridine-4-carboxylic acid [(R)-2-hydroxy-1-(2-methanesulfonyl-pyridin-4-yl)-ethyl]-amide], the IC50 was 6 nM.
With `CC(C)(NC(=O)c1cncc2c1cnn2-c1ccc(F)cc1)c1ccnc(Br)c1` [1-(4-Fluorophenyl)-1H-pyrazolo[3,4-c]pyridine-4-carboxylic acid [1-(2-bromo-pyridin-4-yl)-1-methyl-ethyl]-amide], the IC50 was 14 nM.
As to `CC[C@H](NC(=O)c1cncc2c1cnn2-c1ccc(F)cc1)c1cncc(S(N)(=O)=O)c1` [1-(4-Fluorophenyl)-1H-pyrazolo[3,4-c]pyridine-4-carboxylic acid [(S)-1-(5-sulfamoyl-pyridin-3-yl)-propyl]-amide], the IC50 came out at 0.3 nM.
With `CCC(NC(=O)c1cncc2c1cnn2-c1ccc(F)cc1)c1nc(C(=O)NCC(N)=O)c(C)o1` (centres unmarked) [1-(4-Fluorophenyl)-1H-pyrazolo[3,4-c]pyridine-4-carboxylic acid {1-[4-(carbamoylmethyl-carbamoyl)-5-methyl-oxazol-2-yl]-propyl}-amide] the figure was 25 nM.

The record behind these values is patent US8063065B2, “Azaindazole compounds as CCR1 receptor antagonists” (Boehringer Ingelheim International GmbH, priority 2008, dated 2011).
